Results taken from ChEMBL document CHEMBL4680274, “Modulating microRNA Processing: Enoxacin, the Progenitor of a New Class of Drugs” (J Med Chem, 2020).

Columns and labels:
HCT-116 = experiment: Anticancer activity against human HCT116 cells incubated for 5 days by MTT assay; type: functional, cell-based; settings: HCT-116, 120 h
LNCaP = experiment: Growth inhibition of human LNCaP cells incubated for 72 hrs by MTT assay; type: functional, cell-based
DU-145 = experiment: Growth inhibition of human DU145 cells incubated for 72 hrs by MTT assay; type: functional, cell-based; settings: DU-145, 72 h
Zika virus = experiment: Antiviral activity against ZIKV infected in human neural progenitor cells incubated with cells for 24 hrs prior to viral infection followed by replacement of fresh medium containing compound and measured at 48 hrs post infection by RT-PCR method; settings: Neural Progenitor Cell
[1] = Cytotoxicity against human neural progenitor cell by CellTiter-Glo Luminescent Cell Viability Assay; type: tissue-based; settings: neural progenitor cells

Structure (SMILES): CCn1cc(C(=O)O)c(=O)c2cc(F)c(N3CCNCC3)nc21 [ENOXACIN]
- EC50 (HCT-116): 124 µM
- EC50 (LNCaP): 105 µM
- EC50 (DU-145): 141 µM
- IC50 (Zika virus): 52 µM
- CC50 [1]: 176 µM
